Results as given in US9534008B2, “Small molecule compounds that control plant- and insect-pathogenic nematodes” (California Institute of Technology, priority 2011, dated 2017).

How the values were obtained:
S. feltiae = experiment: Ascaroside function (Table 12), S. feltiae; assay type: in vivo, Steinernema feltiae
Protocol: (§1) Various ascarosides and ascaroside blends were administered to various nematodes described below (Table 12). […] A very strong result of affecting nematode behavior is designated in the table as “strong.”

C. elegans dauer larvae = experiment: Dispersal assay, C. elegans dauer; assay type: in vivo; details: for dispersing nematodes, normalized to percent of the positive control response: physiological concentration, with 0.25% E. coli (HB101), positive control dauer conditioned medium; for substitution for ascr#2 in the C. elegans dispersal blend: in vivo
Protocol: C. elegans dauer juveniles were washed with MILLI-Q water 3 times, placed into 6 cm petri dishes with a small amount of water, and rested overnight. Approximately 200-300 nematodes in 10 μl of water were placed on an agar plate, to which 2 μl of treatment was added. The liquid culture that produced 60% dauer animals was centrifuged, filtered with a 0.45 μm filter, and used as a positive control for dispersal. Thereafter, media were lyophilized and resuspended in MILLI-Q water 5 times. 2 μl to 10 μl of nematode suspension was used for the assay. As a negative control, 0.5% E. coli (HB101) was prepared in S-complete, lyophilized, and adjusted to the final volume of 0.25% E. coli in the assay.
Nematodes were quantified using Image J software (Image Processing and Analysis in Java, National Institutes of Health). The number of nematodes visualized and counted using Image J is illustrated in FIG. 63B. Nematodes inside the circle were subtracted manually from the total number of worms counted because of the location of their placement. Each treatment was replicated 9-11 times. The graph was normalized to the positive control, the dauer conditioned medium.

C. elegans males = experiment: Attraction assay (long-range, point source); details: in vivo
Protocol: 10 cm standard chemotaxis plates were prepared (Bargmann et al., Cell 74:515-27 (1993), which is hereby incorporated by reference in its entirety) and stored at 4° C. until the day before use. Standard 1 cm-diameter copper pipes were sectioned into 1 cm-tall segments to use for the holding chambers. The females/hermaphrodites were isolated overnight, washed 3 times in M9 buffer, and then allowed to wander on a plate pre-conditioned with 50 uL of 1000× streptomycin for 2 hours to kill any bacteria that might produce a false positive attractant. The nematodes were then washed 3 times, and the supernatant from the last wash was placed in a copper chamber, as the control, 1 cm from the border of the 10 cm plate. The nematodes were suspended in M9 within the copper chamber, 1 cm from the border opposite the control chamber. After 6 hours, they were subsequently removed and replaced with 3 μL of 1M sodium azide. 100 C. elegans adult males were isolated overnight, washed several times in ddH2O, and placed at the center of the agar plate. After several hours, males paralyzed within 2 cm of each region were scored. The Chemotaxis Index (Bargmann et al., Cell 74:515-27 (1993), which is hereby incorporated by reference in its entirety) was then used to score male chemotaxis to either point source.

C. elegans [1] = details: in vivo; cited from earlier work
C. elegans [2] = experiment: Ascaroside function (Table 12), C. elegans; assay type: in vivo, Caenorhabditis elegans; set-up: key to Attract Females/Herm. / Promote Dauer Formation / Attract Males: A very strong result of affecting nematode behavior is designated in the table as “strong.”
Protocol: as §1

C. elegans [3] = details: from 1 μM concentration; cited from earlier work
S. glaseri = experiment: Ascaroside function (Table 12), S. glaseri; assay type: in vivo
Protocol: as §1

[4] = tested on: several of the tested nematode species; experiment: Retention assay, across species; assay type: in vivo; details: 1 nM, 1 μM and 1 mM tested
Protocol: OP50 E. coli was grown on a standard 5 cm agar plate (made with standard Nematode Growth Medium). The bacterial lawn was 16 mm in diameter and was grown overnight at 20° C. before being used in trials. Two 4 mm spots (0.6 μL) were placed on opposite sides of the bacterial lawn (using a transparent template to guide spot placement), and several minutes elapsed for the liquid to settle in before placing nematodes down on the assay. Recording began immediately upon worm placement. 0.6 μL of the control was placed on one side of the lawn, and 0.6 μL of the experimental cue was placed on the other side of the lawn, changing the location of the cue throughout trials between left/right and top/bottom to avoid bias.
Nematodes were isolated by gender at the L4 stage the day before being used in trials as developed adults. Worms were evenly divided and placed at two points equidistant from the foci of the scoring region. Trials were recorded for 20 minutes, and frames were collected for analysis at 1 frame per second. Results were averaged from at least three different trials. For every nematode species in this study, a different total number of worms (using water in both scoring regions) was tested to determine the minimum number of worms necessary for consistent unbiased results over a 20 minute trial. The total number of worms used in the multiple species assays depended on that species' optimal parameters. 10 worms were used for P. redivivus males and females, 20 worms were used for C. elegans males and O. dolichuridae males, and 14 worms were used for S. glaseri males. The Automated Software was used to compare worm occupancy in each scoring region over time, and the Chemotaxis Index (Bargmann et al., Cell 74:515-27 (1993), which is hereby incorporated by reference in its entirety) was adapted to score preference or avoidance to each ascaroside.
A video camera attached to the microscope produced a digital video stream, which was then analyzed. The ratio of the time the average worm spent in each region of interest was calculated for every trial. For ease of implementation, all worms in a single experiment were assumed to be roughly the same size. Thus worm pixels were counted instead of whole worms, allowing fractions of a worm in the region of interest to be taken into account. It also eliminated the need for a shape-based worm identification algorithm, and allowed each frame to be analyzed independently. A band-pass filter was applied to each frame to eliminate the effect of uneven lighting and also accentuate the worms against the background. The worm was then identified after thresholding the filtered image. Throughout each experiment, the locations and sizes of the regions of interest were known. Through the filtering described above, it is known which pixels are occupied by worms and which ones are not. Thus, the ratio of worm-pixels to all pixels inside the region of interest can be calculated to produce the worm-occupancy ratio. This calculation was done for every frame, giving a plot output of worm-occupancy ratio vs. time for each region.

Panagrellus redivivus = experiment: Ascaroside function (Table 12), Panagrellus redivivus; assay type: in vivo
Protocol: as §1

[5] = tested on: Meloidogyne javanica, M. floridensis, M. incognita, M. hapla; experiment: Ascaroside function (Table 12), root-knot nematodes; assay type: in vivo, Meloidogyne spp.; details: Meloidogyne javanica, M. floridensis, M. incognita, M. hapla
Protocol: as §1

[6] = tested on: Steinernema riobrave, S. diaprepesi, S carpocapse; experiment: Ascaroside function (Table 12), Steinernema riobrave group; assay type: in vivo, Steinernema spp.
Protocol: as §1

[7] = tested on: Heterorhabditis bacteriophora, H. zealandica, H. floridensis; experiment: Ascaroside function (Table 12), Heterorhabditis; assay type: in vivo, Heterorhabditis spp.; details: Heterorhabditis bacteriophora, H. zealandica, H. floridensis
Protocol: as §1

S. feltiae IJs = experiment: Dispersal assay, S. feltiae IJs; assay type: in vivo; details: physiologically relevant concentrations
Protocol: S. feltiae IJs were washed with MILLI-Q water three times and incubated in 6 cm petri dishes for […] with a small amount (4-5 ml) of MILLI-Q water. Nematodes were placed the following day on a 10.7 g/L agar with 1010 g/cm^2 gel strength (PhytoTechnology Lab. Shawnee Mission, Kans.). Nematode behavior was assayed on multiple plates with internal plate replicates to rule out the possibility that behavior was affected by plate composition. Approximately 300 IJs in 10 μl water were placed on an agar medium and the test compounds or extracts (1-2 μl) were placed into the nematode suspension. Upon absorption (˜15 minutes) of the liquid, the freely moving nematodes were video recorded for 5-10 minutes. Dispersal behavior is temperature and season dependent. During winter, the assay is effective at room temperature (22±1° C.). During summer, the assay requires a temperature controlled environment due to the effects on nematode behavior above 23° C.
For entomopathogenic nematodes (EPN), insect cadavers are known to promote dispersal behavior of the IJ stage (Shapiro-Ilan et al., J. Invertebr. Pathol. 83:270-72 (2003), which is hereby incorporated by reference in its entirety). An assay was therefore developed to identify compounds in consumed insect cadavers that promote dispersal. Approximately 300 IJs of S. feltiae in 10 μl of water were placed on an agar plate (FIG. 64B). […]

With `CC(=O)CCC[C@@H](C)O[C@@H]1O[C@@H](C)[C@H](O)C[C@H]1O` [ascr#2] the “Dispersal (of dauer larvae, infectious juveniles)” value (S. feltiae) was “ascr#2”, the “dispersing nematodes, normalized to percent of the positive control response” value (C. elegans dauer larvae) was 40% and the “C. elegans male chemotaxis to a point source” value (C. elegans males) was “chemotax towards”. The “amount eliciting C. elegans male attraction from a distance (as low as)” value (C. elegans males) was no more than 500 attomol, the dauer-inducing activity (C. elegans [1]) was “promote dauer entry” and the “Attract Males” value (C. elegans [2]) was “ascr#2”. For the same compound, the “Dispersal (of dauer larvae, infectious juveniles)” value (C. elegans [2]) was “ascr#2”, the “Promote Dauer Formation” value (C. elegans [2]) was “([strong])” and the “most active amount for attraction in C. elegans” value (C. elegans [3]) was roughly 1 pmol.

For `C[C@H](CC/C=C/C(=O)Nc1ccc(C(=O)O)cc1)O[C@@H]1O[C@@H](C)[C@H](O)C[C@H]1O` [ascr#8], the “Attract Males” value (S. glaseri) was “ascr#8”, the “preference for areas conditioned by ascaroside” value [4] was “preferred” and the “Attract Females/Herm.” value (Panagrellus redivivus) was “ascr#8”. For the same compound, the “Attract Males” value (Panagrellus redivivus) was “ascr#8”, the “Dispersal (of dauer larvae, infectious juveniles)” value (S. feltiae) was “ascr#8” and the “dispersing nematodes, normalized to percent of the positive control response” value (C. elegans dauer larvae) was 50%. The “C. elegans male chemotaxis to a point source” value (C. elegans males) was “not active”, the dauer-inducing activity (C. elegans [1]) was “promote dauer entry” and the “Attract Males” value (C. elegans [2]) was “ascr#8”. For the same compound, the “Dispersal (of dauer larvae, infectious juveniles)” value (C. elegans [2]) was “ascr#8” and the “Promote Dauer Formation” value (C. elegans [2]) was “([strong])”.

With `C[C@H](CCC(=O)O)O[C@@H]1O[C@@H](C)[C@H](O)C[C@H]1O` [ascr#9] the “Dispersal (of dauer larvae, infectious juveniles)” value [5] was “ascr#9”, the “Repel Females/Herm.” value [5] was “ascr#9” and the “preference for areas conditioned by ascaroside” value [4] was “preferred”. For the same compound, the “Dispersal (of dauer larvae, infectious juveniles)” value [6] was “ascr#9”, the “Attract Males” value (Panagrellus redivivus) was “ascr#9” and the “Dispersal (of dauer larvae, infectious juveniles)” value (S. feltiae) was “ascr#9”. The “substitution for ascr#2 in the C. elegans dispersal blend” value (C. elegans dauer larvae) was “can replace”, the “substitution for ascr#2 in the C. elegans dispersal blend” value (C. elegans dauer larvae; listed as Ascr#9) was “able to substitute” and the “Dispersal (of dauer larvae, infectious juveniles)” value [7] was “ascr#9”. For the same compound, the “Attract Males” value (C. elegans [2]) was “ascr#9” and the “dispersal activity when tested alone” value (S. feltiae IJs) was “did not have activity”.

In the case of `C[C@H](CC(=O)O)O[C@@H]1O[C@@H](C)[C@H](O)C[C@H]1O` [ascr#11], the “Dispersal (of dauer larvae, infectious juveniles)” value [6] is reported as “ascr#11” and the “dispersal activity when tested alone” value (S. feltiae IJs) is reported as “did not have activity”.
